# PubChem BioAssay (NCI)
#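 Dose response: 5 concentrations. Exposure: 48 h. Format: 96-well plates. Endpoint: linear interpolation; highest concentration if not reached. At the GI50, growth is halved. TGI marks complete inhibition of growth.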
# What was measured:
# Assay in all cases: growth of human tumour cells (NCI), 48 h
# NCI-H23 lung = tested on: NCI-H23 lung
# SNB-19 CNS = tested on: SNB-19 CNS
# A498 renal = tested on: A498 renal
# OVCAR-8 ovarian = tested on: OVCAR-8 ovarian
# SF-539 CNS = tested on: SF-539 CNS
# HCC-2998 colon = tested on: HCC-2998 colon
# CAKI-1 renal = tested on: CAKI-1 renal
# SNB-75 CNS = tested on: SNB-75 CNS
# HS 578T breast = tested on: HS 578T breast
# MDA-MB-435 = tested on: MDA-MB-435
SMILES,TGI (NCI-H23 lung),TGI (SNB-19 CNS),TGI (A498 renal),TGI (OVCAR-8 ovarian),TGI (SF-539 CNS),TGI (HCC-2998 colon),TGI (CAKI-1 renal),GI50 (NCI-H23 lung),GI50 (SNB-19 CNS),GI50 (SNB-75 CNS),TGI (SNB-75 CNS),GI50 (A498 renal),GI50 (OVCAR-8 ovarian),GI50 (SF-539 CNS),GI50 (HCC-2998 colon),GI50 (HS 578T breast),TGI (HS 578T breast),GI50 (CAKI-1 renal),TGI (MDA-MB-435),GI50 (MDA-MB-435)
CC(=O)OCC1OC(OCc2ccccc2)C(Br)C(OC(C)=O)C1OC(C)=O (centres undefined),> 100 µM,> 100 µM,> 100 µM,> 100 µM,> 100 µM,> 100 µM,> 100 µM,,,,,,,,,,,,,
Cc1ccc(Cl)cc1NC(=O)c1cc2ccccc2cc1O,0.707 µM,> 40.1 µM,1.04 µM,12.4 µM,1.82 µM,2.47 µM,0.921 µM,0.234 µM,0.442 µM,0.52 µM,15.3 µM,0.369 µM,0.356 µM,0.356 µM,0.692 µM,0.304 µM,1.96 µM,0.219 µM,,
Clc1ccc(OCc2nnc3n2N=C(c2ccc(Br)cc2)CS3)cc1,> 100 µM,75.1 µM,25.7 µM,> 100 µM,24.5 µM,> 100 µM,,,,,,,,,,,,,,
C(=Nc1cnc2ccccc2c1)c1ccc2ccccc2n1,> 100 µM,> 100 µM,> 100 µM,> 100 µM,> 100 µM,,> 100 µM,,,,> 100 µM,,,,,,> 100 µM,,> 100 µM,
COc1ccc(S(=O)(=O)N[C@H](C(=O)O)c2ccccc2)cc1,> 100 µM,> 100 µM,,> 100 µM,> 100 µM,> 100 µM,> 100 µM,,,,> 100 µM,,,,,,,,,
CC[C@]1(O)CC2CN(CCc3c([nH]c4ccccc34)[C@@](C(=O)OC)(c3cc4c(cc3OC)N(C=O)[C@H]3[C@@](O)(C(=O)OC)[C@H](OC(C)=O)[C@]5(CC)C=CCN6CC[C@]43[C@@H]65)C2)C1 (some centres undefined),> 50 µM,> 50 µM,,> 50 µM,> 17.9 µM,,> 50 µM,< 0.005 µM,< 0.005 µM,,,0.0123 µM,0.00828 µM,< 0.005 µM,< 0.005 µM,0.0486 µM,> 46.1 µM,0.232 µM,< 0.005 µM,< 0.005 µM
COC1[C@H](NC(=O)OC(C)(C)C)C(=O)N1Cc1ccccc1 (some centres undefined),> 100 µM,> 100 µM,> 100 µM,> 100 µM,> 100 µM,> 100 µM,,,,,> 100 µM,,,,,,,,,
c1ccc(-c2n(Cc3ccc4ccccc4c3)cc[n+]2Cc2ccc3ccccc3c2)cc1,2.35 µM,,,,2.81 µM,,,0.775 µM,,1.16 µM,2.58 µM,,,1.45 µM,,1.61 µM,4.08 µM,,2.24 µM,1.02 µM
COc1cc(/C=C/C(=O)/C=C/c2cc3ccc(Cl)cc3n(Cc3ccccc3)c2=O)ccc1O,4.65 µM,3.88 µM,,11.7 µM,3.53 µM,3.48 µM,4.54 µM,1.79 µM,1.73 µM,2.52 µM,7.42 µM,,0.497 µM,1.62 µM,1.98 µM,3.79 µM,62 µM,2.08 µM,4.32 µM,0.862 µM
O=C(CCl)Nc1cc(Cl)c(Cl)cc1Cl,3.28 µM,4.43 µM,> 10 µM,3.1 µM,3.04 µM,> 10 µM,4.88 µM,,,,,,,,,,8.56 µM,,2.77 µM,
COc1cc(/C=C/c2ccc(Br)cc2)cc(OC)c1OC,> 81.2 µM,> 100 µM,> 56.6 µM,98.3 µM,31.9 µM,28.1 µM,> 87 µM,,,,39.5 µM,,,,,,,,,
COc1cc(-c2ccc(NC(=O)SCCC(=O)O)cc2OC)ccc1NC(=O)SCCC(=O)O,> 100 µM,> 100 µM,> 100 µM,> 100 µM,> 100 µM,,> 100 µM,,,,> 100 µM,,,,,,,,,
O=S(=O)(c1ccccc1)N1CN2CN(C1)CN(S(=O)(=O)c1ccccc1)C2,> 100 µM,> 100 µM,> 100 µM,> 100 µM,> 100 µM,> 100 µM,> 100 µM,,,,66.1 µM,,,,,,,,> 100 µM,
Cc1cc(C)c2c(c1)N[S@@](=O)S2,> 100 µM,> 100 µM,> 100 µM,33.2 µM,50.5 µM,> 100 µM,70.8 µM,,,,> 100 µM,,,,,,,,,
COC1OC(CBr)C(OC(=O)c2ccccc2)C(OS(=O)(=O)c2ccc(C)cc2)C1Br (centres undefined),> 100 µM,> 100 µM,> 100 µM,> 100 µM,> 100 µM,> 100 µM,> 100 µM,,,,,,,,,,,,,
O=C1C2c3[nH]c4ccccc4c3C3CCCCCC3C2C(=O)N1c1ccccc1 (centres undefined),> 82.9 µM,> 74.1 µM,> 57.1 µM,34 µM,> 52 µM,> 100 µM,> 100 µM,,,,8.41 µM,,,,,,,,,
CC(=O)[CH-]C(=O)c1ccccc1.CC(=O)[CH-]C(=O)c1ccccc1.CC(C)CCC[C@H](C)C1CCC2[C@@H]3CC=C4C[C@@H]([O-])CC[C@]4(C)C3CC[C@@]21C.CC(C)CCC[C@H](C)C1CCC2[C@@H]3CC=C4C[C@@H]([O-])CC[C@]4(C)C3CC[C@@]21C.Cl.[Ti+4] (some centres undefined),> 25 µM,> 25 µM,> 25 µM,> 25 µM,> 25 µM,> 25 µM,> 25 µM,> 25 µM,> 25 µM,22.1 µM,> 25 µM,> 25 µM,> 25 µM,> 25 µM,> 25 µM,,,> 25 µM,,
COc1c(O)cc2c(c1O)C(=O)C1=C(CCCC1)C2=O,41.3 µM,96.9 µM,47.7 µM,57.5 µM,44 µM,47.7 µM,71 µM,,,,,,,,,,97.1 µM,,> 100 µM,
COc1cc2c(cc1O)CN1CCC23C=C[C@@H](O)CC13 (some centres undefined),> 100 µM,> 100 µM,> 100 µM,> 100 µM,,> 100 µM,> 100 µM,,,,> 100 µM,,,,,,,,,
COC(=O)C1C(=O)O[C@@H](c2ccc(OC)c(OC)c2OC)C1C(=O)OC (mixture of isomers),> 100 µM,> 100 µM,> 100 µM,> 100 µM,> 100 µM,> 100 µM,> 100 µM,,,,> 100 µM,,,,,,,,,
